# Data: PubChem BioAssay AID248 (DTP/NCI, 2004)
# Where “and” joins values, the source holds several entries; their conditions need not be identical. Identical values can stand only once. Inconclusive results and toxic doses are left out.
# Test system: L1210 leukemia ip in BDF1 mice, survival T/C
# Test: NCI In Vivo Anticancer Drug Screen. Data for tumor model L1210 Leukemia (intraperitoneal) in B6D2F1 (BDF1) mice
# Conditions: endpoint: mean survival time, higher = longer survival
# Summary of the method: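 Tumor cells were implanted, animals were treated, and survival was followed. The result divides the treated measurement by the vehicle-control measurement.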
# [1] = dose: 50.0 mg/kg/injection, schedule: Q01DX001 (ip), vehicle: saline
# [2] = dose: 100.0 mg/kg/injection, schedule: Q01DX001 (ip), vehicle: saline
# [3] = dose: 200.0 mg/kg/injection, schedule: Q01DX001 (ip), vehicle: saline
# [4] = dose: 100.0 mg/kg/injection, schedule: Q01DX009 (ip), vehicle: saline with Tween-80
# [5] = dose: 400.0 mg/kg/injection, schedule: Q01DX009 (ip), vehicle: saline with Tween-80
# [6] = dose: 100.0 mg/kg/injection, schedule: Q01DX009 (ip), vehicle: saline
# [7] = dose: 400.0 mg/kg/injection, schedule: Q01DX009 (ip), vehicle: saline
# [8] = dose: 100.0 mg/kg/injection, schedule: Q04DX003 (ip), vehicle: Klucel (hydroxypropylcellulose) (HPC)
# [9] = dose: 200.0 mg/kg/injection, schedule: Q04DX003 (ip), vehicle: Klucel (hydroxypropylcellulose) (HPC)
# [10] = dose: 400.0 mg/kg/injection, schedule: Q04DX003 (ip), vehicle: Klucel (hydroxypropylcellulose) (HPC)
# [11] = dose: 100.0 mg/kg/injection, schedule: Q04DX003 (ip), vehicle: saline with Tween-80
# [12] = dose: 200.0 mg/kg/injection, schedule: Q04DX003 (ip), vehicle: saline with Tween-80
# [13] = dose: 400.0 mg/kg/injection, schedule: Q04DX003 (ip), vehicle: saline with Tween-80
# [14] = dose: 25.0 mg/kg/injection, schedule: Q01DX009 (ip), vehicle: saline with Tween-80
# [15] = dose: 50.0 mg/kg/injection, schedule: Q01DX009 (ip), vehicle: saline with Tween-80
# [16] = dose: 50.0 mg/kg/injection, schedule: Q01DX009 (ip), vehicle: saline
# [17] = dose: 50.0 mg/kg/injection, schedule: Q04DX003 (ip), vehicle: saline
# [18] = dose: 100.0 mg/kg/injection, schedule: Q04DX003 (ip), vehicle: saline
# [19] = dose: 150.0 mg/kg/injection, schedule: Q04DX003 (ip), vehicle: saline
# [20] = dose: 100.0 mg/kg/injection, schedule: Q01DX009 (ip), vehicle: Klucel (hydroxypropylcellulose) (HPC)
# [21] = dose: 200.0 mg/kg/injection, schedule: Q01DX009 (ip), vehicle: Klucel (hydroxypropylcellulose) (HPC)
smiles,measurement,setting,value
COS(=O)(=O)CCC[n+]1ccccc1,T/C,[1],98 % of control
same,T/C,[2],96 % of control
same,T/C,[3],96 % of control
CC(C)COC(=O)C1OC1(C)c1ccccc1 (stereo not given),T/C,[4],100 % of control
same,T/C,"dose: 200.0 mg/kg/injection, schedule: Q01DX009 (ip), vehicle: saline with Tween-80",106 % of control
same,T/C,[5],103 % of control
Nc1ccc(N=Nc2ccccc2)c(N)c1,T/C,[6],95 % of control
same,T/C,"dose: 200.0 mg/kg/injection, schedule: Q01DX009 (ip), vehicle: saline",101 % of control
same,T/C,[7],95 % of control
CCOP(=O)(Cc1ccc(N=Cc2cnc3nc(NC(C)=O)[nH]c(=O)c3n2)cc1)OCC,T/C,"dose: 100.0 mg/kg/injection, schedule: Q01DX001 (ip), vehicle: other",98 % of control
same,T/C,"dose: 200.0 mg/kg/injection, schedule: Q01DX001 (ip), vehicle: other",105 % of control
same,T/C,"dose: 400.0 mg/kg/injection, schedule: Q01DX001 (ip), vehicle: other",96 % of control
COc1cccc(NC(=S)NCCO)c1,T/C,[8],103 % of control
same,T/C,[9],110 % of control
same,T/C,[10],110 % of control
O=C1C(Cl)=CC(=NBr)C=C1Cl,T/C,"dose: 12.5 mg/kg/injection, schedule: Q04DX002 (ip), vehicle: Klucel (hydroxypropylcellulose) (HPC)",88 % of control
same,T/C,"dose: 25.0 mg/kg/injection, schedule: Q04DX002 (ip), vehicle: Klucel (hydroxypropylcellulose) (HPC)",92 % of control
same,T/C,"dose: 50.0 mg/kg/injection, schedule: Q04DX002 (ip), vehicle: Klucel (hydroxypropylcellulose) (HPC)",98 % of control
Cc1c(Cl)cccc1NC(=O)NCCC(C)C,T/C,[4],86 % of control
same,T/C,[11],93 % of control
same,T/C,[12],91 % of control
same,T/C,[5],89 % of control
same,T/C,[13],95 % of control
N#CCCCOc1cccc(N)c1,T/C,[2],101 % of control
same,T/C,[3],101 % of control
same,T/C,"dose: 400.0 mg/kg/injection, schedule: Q01DX001 (ip), vehicle: saline",101 % of control
CC(C)(C)NC(=O)CCC(=O)O,T/C,"dose: 75.0 mg/kg/injection, schedule: Q04DX002 (ip), vehicle: Klucel (hydroxypropylcellulose) (HPC)",89 % of control
same,T/C,"dose: 150.0 mg/kg/injection, schedule: Q04DX002 (ip), vehicle: Klucel (hydroxypropylcellulose) (HPC)",92 % of control
same,T/C,"dose: 300.0 mg/kg/injection, schedule: Q04DX002 (ip), vehicle: Klucel (hydroxypropylcellulose) (HPC)",100 % of control
COc1ccc(COC2C(O)C(CO)OC2n2cnc3c(N)ncnc32)cc1 (stereo not given),T/C,"dose: 100.0 mg/kg/injection, schedule: Q01DX005 (ip), vehicle: saline",92 % of control
same,T/C,"dose: 200.0 mg/kg/injection, schedule: Q01DX005 (ip), vehicle: saline",94 % of control
ClC1=C(Cl)C2CCC1C2,T/C,[14],88 % of control
same,T/C,[15],98 % of control
same,T/C,"dose: 100.0 mg/kg/injection, schedule: Q01DX005 (ip), vehicle: saline with Tween-80",96 % of control
same,T/C,[4],94 % of control and 98 % of control
same,T/C,"dose: 100.0 mg/kg/injection, schedule: Q04DX002 (ip), vehicle: saline with Tween-80",100 % of control
same,T/C,"dose: 200.0 mg/kg/injection, schedule: Q01DX005 (ip), vehicle: saline with Tween-80",92 % of control
same,T/C,"dose: 200.0 mg/kg/injection, schedule: Q04DX002 (ip), vehicle: saline with Tween-80",100 % of control
same,T/C,"dose: 400.0 mg/kg/injection, schedule: Q01DX005 (ip), vehicle: saline with Tween-80",101 % of control
CCOC(=O)C(=O)C(C#N)c1cccc2ccccc12 (stereo not given),T/C,[8],100 % of control
same,T/C,[9],96 % of control
Clc1ccccc1/C=C1\c2ccc(Br)cc2-c2cccc[n+]21,T/C,"dose: 75.0 mg/kg/injection, schedule: Q01DX001 (ip), vehicle: other",87 % of control
CCC1=CC(=O)C(CC)=CC1=O,T/C,[11],89 % of control
same,T/C,[12],94 % of control
same,T/C,"dose: 700.0 mg/kg/injection, schedule: Q04DX003 (ip), vehicle: saline with Tween-80",100 % of control
CN(C)CCSSCCN(C)C,T/C,[1],102 % of control
same,T/C,[2],104 % of control
same,T/C,[3],96 % of control
COC1OC(CO)C(O)C(NC(=O)N(C)N=O)C1O (stereo not given),T/C,"dose: 12.5 mg/kg/injection, schedule: Q01DX009 (ip), vehicle: saline",112 % of control
same,T/C,"dose: 25.0 mg/kg/injection, schedule: Q04DX003 (ip), vehicle: saline",106 % of control
same,T/C,"dose: 44.0 mg/kg/injection, schedule: Q01DX009 (ip), vehicle: saline",124 % of control
same,T/C,[16],181 % of control
same,T/C,[17],105 % of control
same,T/C,"dose: 66.0 mg/kg/injection, schedule: Q04DX003 (ip), vehicle: saline",100 % of control
same,T/C,[6],103 % of control and 218 % of control
same,T/C,[8],119 % of control
same,T/C,[18],158 % of control
same,T/C,[19],105 % of control
same,T/C,"dose: 200.0 mg/kg/injection, schedule: Q04DX003 (ip), vehicle: saline",166 % of control
same,T/C,[7],100 % of control
same,T/C,[10],171 % of control
same,T/C,"dose: 400.0 mg/kg/injection, schedule: Q04DX003 (ip), vehicle: saline",100 % of control and 214 % of control
CCN(CC)CCOc1cc(C)ccc1C,T/C,"dose: 25.0 mg/kg/injection, schedule: Q01DX009 (ip), vehicle: saline",98 % of control
same,T/C,[16],93 % of control
same,T/C,[17],100 % of control
same,T/C,[6],95 % of control
same,T/C,[18],98 % of control
CC(=O)OCC(Cl)C(Cl)CCl (stereo not given),T/C,[8],96 % of control
same,T/C,[9],95 % of control
same,T/C,[10],95 % of control
COc1ccc(NC(=O)CCN2CC2)cc1,T/C,"dose: 12.5 mg/kg/injection, schedule: Q01DX001 (ip), vehicle: saline",105 % of control
same,T/C,"dose: 25.0 mg/kg/injection, schedule: Q01DX001 (ip), vehicle: saline",97 % of control
same,T/C,[14],103 % of control
same,T/C,[1],103 % of control
same,T/C,[15],95 % of control
same,T/C,"dose: 100.0 mg/kg/injection, schedule: Q01DX001 (ip), vehicle: alcohol",93 % of control
same,T/C,[4],91 % of control
same,T/C,"dose: 200.0 mg/kg/injection, schedule: Q01DX001 (ip), vehicle: alcohol",86 % of control
O=C1c2ccccc2CC1(Br)Br,T/C,"dose: 100.0 mg/kg/injection, schedule: Q04DX003 (ip), vehicle: other",96 % of control
same,T/C,"dose: 200.0 mg/kg/injection, schedule: Q04DX003 (ip), vehicle: other",93 % of control
CC[n+]1cccc(C#N)c1,T/C,"dose: 75.0 mg/kg/injection, schedule: Q01DX001 (ip), vehicle: saline",98 % of control
same,T/C,"dose: 75.0 mg/kg/injection, schedule: Q04DX003 (ip), vehicle: saline",93 % of control
same,T/C,"dose: 150.0 mg/kg/injection, schedule: Q01DX001 (ip), vehicle: saline",103 % of control
same,T/C,[19],98 % of control
same,T/C,"dose: 300.0 mg/kg/injection, schedule: Q01DX001 (ip), vehicle: saline",101 % of control
O=C1C=C(C(Cl)(Cl)Cl)OC(=O)C1,T/C,[11],98 % of control
same,T/C,[12],98 % of control
same,T/C,[13],93 % of control
O=S(=O)(Nc1ccc(Br)c2ccccc12)c1ccccc1,T/C,"dose: 25.0 mg/kg/injection, schedule: Q01DX001 (ip), vehicle: saline sonified",97 % of control
same,T/C,"dose: 50.0 mg/kg/injection, schedule: Q01DX001 (ip), vehicle: saline sonified",92 % of control
same,T/C,"dose: 100.0 mg/kg/injection, schedule: Q01DX001 (ip), vehicle: saline sonified",92 % of control
O=C(c1ccccc1)C1C(c2ccccc2)N1CCl (stereo not given),T/C,[20],98 % of control
same,T/C,[8],92 % of control
same,T/C,[21],94 % of control
same,T/C,[9],105 % of control
same,T/C,"dose: 400.0 mg/kg/injection, schedule: Q01DX009 (ip), vehicle: Klucel (hydroxypropylcellulose) (HPC)",100 % of control
same,T/C,[10],107 % of control
O=C(Nc1cccc(C(=O)O)c1)Nc1ccccc1F,T/C,"dose: 50.0 mg/kg/injection, schedule: Q01DX009 (ip), vehicle: Klucel (hydroxypropylcellulose) (HPC)",93 % of control
same,T/C,[20],107 % of control
same,T/C,[21],93 % of control
